# From PubChem BioAssay AID296 (DTP/NCI, 2004)
# Values joined by “and” are separate entries in the source; they are usually repeats but may differ in a detail not shown here. Equal entries are not always repeated. Results filed as inconclusive are left out.
# System: MX-1 breast xenograft, nude mice, tumor weight T/C
# Assay: NCI In Vivo Anticancer Drug Screen. Data for tumor model Human Mammary Carcinoma MX-1 Xenograft (intrarenal inoculation) in NU/NU Swiss (nude) mice
# Settings: endpoint: mean tumor weight change, higher = larger tumour
# Outline: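 Antitumour effect measured in vivo against vehicle controls, expressed as T/C.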
# [1] = dose: 200.0 mg/kg/injection, schedule: Q04DX003 (sc), vehicle: saline with Tween-80
# [2] = dose: 25.0 mg/kg/injection, schedule: Q01DX010 (sc), vehicle: saline with Tween-80
# [3] = dose: 100.0 mg/kg/injection, schedule: Q01DX010 (sc), vehicle: saline with Tween-80
# [4] = dose: 200.0 mg/kg/injection, schedule: Q01DX010 (sc), vehicle: saline with Tween-80
# [5] = dose: 30.0 mg/kg/injection, schedule: Q01DX010 (sc), vehicle: water
# [6] = dose: 60.0 mg/kg/injection, schedule: Q01DX010 (sc), vehicle: water
# [7] = dose: 600.0 mg/kg/injection, schedule: Q04DX003 (sc), vehicle: water
# [8] = dose: 300.0 mg/kg/injection, schedule: Q04DX003 (sc), vehicle: saline with Tween-80
# [9] = dose: 600.0 mg/kg/injection, schedule: Q04DX003 (sc), vehicle: saline with Tween-80
# [10] = dose: 1200.0 mg/kg/injection, schedule: Q04DX003 (sc), vehicle: saline with Tween-80
# [11] = dose: 300.0 mg/kg/injection, schedule: Q04DX003 (ip), vehicle: saline with Tween-80
compound,measurement,setting,value
CC1OC(=O)C(C(C)C)NC(=O)C(C(C)C)OC(=O)C(C(C)C)NC(=O)C(C)OC(=O)C(C(C)C)NC(=O)C(C(C)C)OC(=O)C(C(C)C)NC(=O)C(C)OC(=O)C(C(C)C)NC(=O)C(C(C)C)OC(=O)C(C(C)C)NC1=O (configuration not stated),T/C,"dose: 2.5 mg/kg/injection, schedule: Q01DX010 (sc), vehicle: saline with Tween-80",84 % of control
same,T/C,"dose: 5.0 mg/kg/injection, schedule: Q01DX010 (sc), vehicle: saline with Tween-80",150 % of control
same,T/C,"dose: 10.0 mg/kg/injection, schedule: Q01DX010 (sc), vehicle: saline with Tween-80",95 % of control and 112 % of control
CCN(CC)CCOC(=O)Cc1cccc2c(=O)cc(-c3ccccc3)oc12,T/C,"dose: 100.0 mg/kg/injection, schedule: Q04DX003 (sc), vehicle: saline with Tween-80",107 % of control
same,T/C,[1],102 % of control
O=NN(CCCl)C(=O)Oc1cc(Cl)c(Cl)cc1Cl,T/C,"dose: 300.0 mg/kg/injection, schedule: Q04DX003 (sc), vehicle: Klucel (hydroxypropylcellulose) (HPC)",64 % of control
same,T/C,"dose: 600.0 mg/kg/injection, schedule: Q04DX003 (sc), vehicle: Klucel (hydroxypropylcellulose) (HPC)",35 % of control
same,T/C,"dose: 1200.0 mg/kg/injection, schedule: Q04DX003 (sc), vehicle: Klucel (hydroxypropylcellulose) (HPC)",21 % of control
same,T/C,"dose: 2400.0 mg/kg/injection, schedule: Q04DX003 (sc), vehicle: Klucel (hydroxypropylcellulose) (HPC)",33 % of control
CCOC(=O)c1ccc(NC(=O)Nc2nccs2)cc1,T/C,[2],100 % of control
same,T/C,[3],97 % of control and 108 % of control
same,T/C,[4],63 % of control
same,T/C,"dose: 400.0 mg/kg/injection, schedule: Q01DX010 (sc), vehicle: saline with Tween-80",186 % of control
Nc1ccn(C2OC(CO)C(O)C2O)c(=O)n1 (configuration not stated),T/C,"dose: 7.5 mg/kg/injection, schedule: Q01DX010 (sc), vehicle: water",53 % of control
same,T/C,"dose: 7.81 mg/kg/injection, schedule: Q01DX010 (sc), vehicle: water",62 % of control
same,T/C,"dose: 15.0 mg/kg/injection, schedule: Q01DX010 (sc), vehicle: water",27 % of control
same,T/C,"dose: 15.63 mg/kg/injection, schedule: Q01DX010 (sc), vehicle: water",28 % of control and 30 % of control
same,T/C,[5],18 % of control
same,T/C,"dose: 31.25 mg/kg/injection, schedule: Q01DX010 (sc), vehicle: water",9 % of control and 12 % of control
same,T/C,[6],9 % of control
same,T/C,[7],41 % of control
C[N+](C)(C)c1ncnc2c1ncn2C1CCCO1 (configuration not stated),T/C,"dose: 0.25 mg/kg/injection, schedule: Q01DX010 (sc), vehicle: saline",83 % of control
same,T/C,"dose: 0.5 mg/kg/injection, schedule: Q01DX010 (sc), vehicle: saline",112 % of control
same,T/C,"dose: 1.0 mg/kg/injection, schedule: Q01DX010 (sc), vehicle: saline",50 % of control
same,T/C,"dose: 2.0 mg/kg/injection, schedule: Q01DX010 (sc), vehicle: saline",163 % of control
Nc1nc(N)c2cc(S(=O)(=O)c3ccccc3)ccc2n1,T/C,"dose: 150.0 mg/kg/injection, schedule: Q04DX003 (sc), vehicle: saline with Tween-80",160 % of control
same,T/C,[8],171 % of control
same,T/C,[9],185 % of control
same,T/C,[10],152 % of control
CC(=S)NC(O)C(=O)c1ccccc1 (configuration not stated),T/C,[1],163 % of control
same,T/C,"dose: 400.0 mg/kg/injection, schedule: Q04DX003 (sc), vehicle: saline with Tween-80",122 % of control
same,T/C,"dose: 800.0 mg/kg/injection, schedule: Q04DX003 (sc), vehicle: saline with Tween-80",152 % of control
same,T/C,"dose: 1600.0 mg/kg/injection, schedule: Q04DX003 (sc), vehicle: saline with Tween-80",123 % of control
NC(=O)c1cc(Cl)nc2nc(Cl)nc(N)c12,T/C,"dose: 150.0 mg/kg/injection, schedule: Q04DX003 (ip), vehicle: saline with Tween-80",112 % of control
same,T/C,[11],108 % of control
same,T/C,"dose: 600.0 mg/kg/injection, schedule: Q04DX003 (ip), vehicle: saline with Tween-80",90 % of control
same,T/C,"dose: 1200.0 mg/kg/injection, schedule: Q04DX003 (ip), vehicle: saline with Tween-80",93 % of control
O=NN(CCCl)C(=O)NC1CCCCC1,T/C,"dose: 4.0 mg/kg/injection, schedule: Q01DX010 (sc), vehicle: saline with Tween-80",109 % of control
same,T/C,"dose: 8.0 mg/kg/injection, schedule: Q04DX003 (sc), vehicle: Klucel (hydroxypropylcellulose) (HPC)",88 % of control and 92 % of control
same,T/C,"dose: 8.0 mg/kg/injection, schedule: Q04DX003 (sc), vehicle: carboxymethylcellulose (CMC)",89 % of control
same,T/C,"dose: 12.5 mg/kg/injection, schedule: Q04DX003 (sc), vehicle: Klucel (hydroxypropylcellulose) (HPC)",59 % of control
same,T/C,"dose: 16.0 mg/kg/injection, schedule: Q01DX010 (sc), vehicle: saline with Tween-80",28 % of control
same,T/C,"dose: 16.0 mg/kg/injection, schedule: Q04DX003 (sc), vehicle: carboxymethylcellulose (CMC)",85 % of control
same,T/C,"dose: 25.0 mg/kg/injection, schedule: Q04DX003 (sc), vehicle: Klucel (hydroxypropylcellulose) (HPC)",92 % of control and 213 % of control
same,T/C,"dose: 32.0 mg/kg/injection, schedule: Q04DX003 (sc), vehicle: carboxymethylcellulose (CMC)",77 % of control
same,T/C,"dose: 64.0 mg/kg/injection, schedule: Q04DX003 (sc), vehicle: Klucel (hydroxypropylcellulose) (HPC)",-95 % of control
same,T/C,"dose: 64.0 mg/kg/injection, schedule: Q04DX003 (sc), vehicle: carboxymethylcellulose (CMC)",29 % of control
O=C1CN(CO)C(=O)N1CO,T/C,"dose: 100.0 mg/kg/injection, schedule: Q04DX003 (ip), vehicle: saline",93 % of control
same,T/C,"dose: 200.0 mg/kg/injection, schedule: Q04DX003 (ip), vehicle: saline",67 % of control
same,T/C,"dose: 400.0 mg/kg/injection, schedule: Q04DX003 (ip), vehicle: saline",28 % of control
CC(=O)NC(Cc1ccc(F)cc1)C(=O)O (configuration not stated),T/C,[8],100 % of control
same,T/C,[9],101 % of control
same,T/C,[10],120 % of control
same,T/C,"dose: 2400.0 mg/kg/injection, schedule: Q04DX003 (sc), vehicle: saline with Tween-80",111 % of control
COc1ccc(OC)c(Cc2cnc3nc(N)nc(N)c3c2C)c1,T/C,"dose: 75.0 mg/kg/injection, schedule: Q04DX003 (sc), vehicle: water",73 % of control
same,T/C,"dose: 150.0 mg/kg/injection, schedule: Q04DX003 (sc), vehicle: water",56 % of control
same,T/C,"dose: 300.0 mg/kg/injection, schedule: Q04DX003 (sc), vehicle: water",53 % of control
same,T/C,[7],62 % of control
COC1=C(C)C(=O)C2=C(C1=O)C1C3CC4=C(C(=O)C(OC)=C(C)C4=O)C(CNC(=O)C(C)=O)N3C(C#N)C(C2)N1C (configuration not stated),T/C,"dose: 1.0 mg/kg/injection, schedule: Q04DX003 (sc), vehicle: Klucel (hydroxypropylcellulose) (HPC)",104 % of control
same,T/C,"dose: 4.0 mg/kg/injection, schedule: Q04DX003 (sc), vehicle: Klucel (hydroxypropylcellulose) (HPC)",69 % of control
CC1(C)CC1(Br)Br,T/C,[2],71 % of control
same,T/C,[3],118 % of control
same,T/C,[4],153 % of control
CC[N](CC)[Ge]([CH2]C)[CH2]C.CC[N](CC)[Ge]([CH2]C)[CH2]C,T/C,"dose: 12.5 mg/kg/injection, schedule: Q01DX010 (sc), vehicle: saline",190 % of control
same,T/C,"dose: 25.0 mg/kg/injection, schedule: Q01DX010 (sc), vehicle: saline",106 % of control
same,T/C,"dose: 50.0 mg/kg/injection, schedule: Q01DX010 (sc), vehicle: saline",106 % of control
CCCCCCNc1nc(NCCCCCC)c2[nH]c(NCCCCCC)nc2n1,T/C,[11],75 % of control
O=[N+]([O-])c1ccc(N(CCO)CCO)c2c1no[n+]2[O-],T/C,"dose: 12.5 mg/kg/injection, schedule: Q04DX003 (ip), vehicle: saline with Tween-80",101 % of control
same,T/C,"dose: 25.0 mg/kg/injection, schedule: Q04DX003 (ip), vehicle: saline with Tween-80",108 % of control
same,T/C,"dose: 50.0 mg/kg/injection, schedule: Q04DX003 (ip), vehicle: saline with Tween-80",75 % of control
CNc1nc(N(C)C)nc(N(C)C)n1,T/C,"dose: 12.5 mg/kg/injection, schedule: Q04DX003 (sc), vehicle: water",59 % of control
same,T/C,"dose: 25.0 mg/kg/injection, schedule: Q04DX003 (sc), vehicle: water",60 % of control
same,T/C,[5],24 % of control
same,T/C,"dose: 50.0 mg/kg/injection, schedule: Q04DX003 (sc), vehicle: water",34 % of control
same,T/C,[6],3 % of control
same,T/C,"dose: 100.0 mg/kg/injection, schedule: Q04DX003 (sc), vehicle: water",10 % of control
same,T/C,"dose: 120.0 mg/kg/injection, schedule: Q01DX010 (sc), vehicle: water",-63 % of control
